# Assay results as given in ChEMBL document CHEMBL4813914, “Tackling Antimicrobial Resistance with Small Molecules Targeting LsrK: Challenges and Opportunities” (J Med Chem, 2020).
# Experiments:
# [1] = Inhibition of Salmonella typhimurium LsrK expressed in Escherichia coli MET1158 in presence of DPD by kinase-glo max luminescent assay; parameters: species or system Salmonella enterica subsp. enterica serovar Typhimurium
# [2] = Inhibition of LsrK expressed in Escherichia coli JW5503 harboring plasmid pET-Plsrlux assessed as reduction in autoinducer2-mediated quorum sensing activation by luminescence method
# [3] = Inhibition of Salmonella typhimurium LsrK expressed in Escherichia coli MET1158 incubated for 30 mins followed by DPD and ATP addition and measured after 15 mins by kinase-glo max luminescent assay; parameters: species or system Salmonella enterica subsp. enterica serovar Typhimurium
# [4] = Inhibition of LsrK expressed in Escherichia coli LW7 pLW11 harboring assessed as reduction in autoinducer2-mediated quorum sensing by measuring beta-galactosidase expression by luminescence method
IC50 [1] [µM],IC50 [2] [µM],SMILES,also measured
18,0.6,O=C(O)C(=O)Nc1nc2ccc(NC(=O)c3cc(Br)c(Br)[nH]3)cc2s1,–
67,–,COc1ccc(Nc2cc(C(F)(F)F)ccc2Cl)c(C(=O)O)c1,–
–,–,O=C1C=CC(=C(c2ccc(O)cc2)c2ccc(O)cc2)C=C1 [AURIN],IC50 [3]: 1 µM; IC50 [4]: 14 µM
147,2,O=C(O)C(=O)N[C@H]1CCc2nc(NC(=O)c3cc(Br)c(Br)[nH]3)sc2C1,–
–,–,O=C(O)C1=CC(=C(c2ccc(O)c(C(=O)O)c2)c2ccc(O)c(C(=O)O)c2)C=CC1=O [AURINTRICARBOXYLIC ACID],IC50 [3]: 1 µM
30,–,O=C(O)c1ccc(Cl)cc1Nc1ccccc1,–
70,–,Cc1c(Cl)cccc1Nc1ccccc1C(=O)O [TOLFENAMIC ACID],–
141,–,O=C(O)c1ccccc1Nc1ccc(Cl)cc1,–
78,17,O=C(Nc1ccc(C2=N[C@@H](C(=O)O)CO2)cc1)c1cc(Br)c(Br)[nH]1,–
29,1,Cc1[nH]c(C(=O)N(Cc2ccccc2)c2nc3ccc(NC(=O)C(=O)O)cc3s2)c(Cl)c1Cl,–
178,–,Cc1ccc(Cl)c(Nc2ccccc2C(=O)O)c1Cl [MECLOFENAMIC ACID],–
–,–,COc1cc(C)c2c(c1C=O)Oc1c(c(C)c(O)c3c1C(O)OC3=O)OC2=O (stereo not given) [STICTIC ACID],IC50 [3]: 3 µM
18,10,O=C(O)C(=O)Nc1ccc2nc(N(Cc3ccccc3)C(=O)c3cc(Br)c(Br)[nH]3)sc2c1,–
292,–,O=C(O)c1ccc(O)c2ncccc12,–
12,–,O=C(O)c1c(Cl)c(Cl)c(Cl)c(Cl)c1Nc1cc(Cl)c(Cl)c(Cl)c1Cl,–
–,–,CC1=C(O)C(=O)C=C2C1=CC=C1[C@@]2(C)CC[C@@]2(C)[C@@H]3C[C@](C)(C(=O)O)CC[C@]3(C)CC[C@]12C [CELASTROL],IC50 [3]: 3 µM
119,–,O=C(O)c1ccccc1Nc1cccc(Cl)c1,–
15,0.4,O=C(O)CC(=O)Nc1ccc2nc(N(Cc3ccccc3)C(=O)c3cc(Br)c(Br)[nH]3)sc2c1,–
